BindingDB's records for doi:10.1002/cbic.201000487 (Eberhard Karls University of Tuebingen, 2010)

Tests used:
[1] = biological target: Mitogen-activated protein kinase 10 (Homo sapiens, UniProt P53779); experiment: Kinase Assay; details: 37 °C
Protocol: (§1) The p38alpha reaction was carried out by using kinase (12ng per well), ATP (100uM) and incubated for 60 min at 37 C. For the JNK3 assay, kinase (10ng per well), ATP (1uM) and 45 min of incubation time at 37 C were used.

[2] = biological target: Mitogen-activated protein kinase 14 (Homo sapiens, UniProt Q16539); experiment: Kinase Assay; details: 37 °C
Protocol: as §1

Sequence of Mitogen-activated protein kinase 10 (P53779 whole entry): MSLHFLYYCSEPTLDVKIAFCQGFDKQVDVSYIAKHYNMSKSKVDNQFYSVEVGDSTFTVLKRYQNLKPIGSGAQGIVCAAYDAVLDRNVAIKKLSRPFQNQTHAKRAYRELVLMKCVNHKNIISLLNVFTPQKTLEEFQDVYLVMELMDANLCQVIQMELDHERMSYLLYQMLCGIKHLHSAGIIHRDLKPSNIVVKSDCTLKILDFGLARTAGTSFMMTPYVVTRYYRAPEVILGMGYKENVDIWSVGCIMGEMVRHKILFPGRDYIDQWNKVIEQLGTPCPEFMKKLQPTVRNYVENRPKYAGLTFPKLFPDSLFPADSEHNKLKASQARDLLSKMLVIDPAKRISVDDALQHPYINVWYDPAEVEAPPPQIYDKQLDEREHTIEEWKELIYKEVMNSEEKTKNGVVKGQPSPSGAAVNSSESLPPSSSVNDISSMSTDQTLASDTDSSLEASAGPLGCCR
Sequence of Mitogen-activated protein kinase 14 (Q16539 whole entry): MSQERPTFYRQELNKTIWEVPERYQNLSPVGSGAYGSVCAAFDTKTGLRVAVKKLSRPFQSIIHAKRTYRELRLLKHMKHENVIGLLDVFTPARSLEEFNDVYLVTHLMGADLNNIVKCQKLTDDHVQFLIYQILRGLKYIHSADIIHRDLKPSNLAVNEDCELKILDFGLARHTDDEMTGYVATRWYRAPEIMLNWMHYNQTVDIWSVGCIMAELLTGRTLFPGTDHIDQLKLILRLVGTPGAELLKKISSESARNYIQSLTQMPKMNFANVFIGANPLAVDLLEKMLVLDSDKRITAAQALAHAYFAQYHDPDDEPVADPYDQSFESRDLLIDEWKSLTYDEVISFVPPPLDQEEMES

IC50 [1] [µM]	IC50 [2] [µM]	SMILES
2.24	1.64	O=c1c(O)c(-c2cc(O)c(O)c(O)c2)oc2cc(O)cc(O)c12
19.1	18.4	O=c1c(O)c(-c2ccc(O)cc2)oc2cc(O)cc(O)c12
26.8	11.4	O=c1c(O)c(-c2ccc(O)cc2O)oc2cc(O)cc(O)c12 [2-(2,4-dihydroxyphenyl)-3,5,7-trihydroxychromen-4-one]
2.6	2.7	O=c1c(O)c(-c2ccc(O)c(O)c2)oc2cc(O)ccc12 [2-(3,4-dihydroxyphenyl)-3,7-dihydroxy-chromen-4-one]
7.7	12.3	COc1cc(O)c2c(=O)c(OC)c(-c3ccc(O)c(O)c3)oc2c1 [3',4',5-trihydroxy-3,7-dimethoxyflavone]
5.78	50	COc1ccc(-c2cc(=O)c3c(O)cc(O)cc3o2)cc1 [5,7-dihydroxy-2-(4-methoxyphenyl)-4H-chromen-4-one]
11.8	39.9	O=c1cc(-c2ccccc2)oc2cc(O)cc(O)c12 [5,7-dihydroxy-2-phenyl-4H-chromen-4-one]
–	27.8	COc1ccc(-c2cc(=O)c3c(O)cc(OC)cc3o2)cc1 [5-hydroxy-7-methoxy-2-(4-methoxyphenyl)-4H-chromen-4-one]
22.4	17.2	COc1c(O)cc2oc(-c3ccc(O)cc3)c(O)c(=O)c2c1O [6-methoxy kaempferol]
52.5	32.9	COc1ccc(-c2oc3cc(O)cc(O)c3c(=O)c2O)cc1 [Kaempferide]
55.4	3.98	COc1cc(O)c2c(=O)c(O)c(-c3ccc(OC)c(O)c3)oc2c1 [Kaempferol-7,4'-dimethylether]
2.2	14.3	O=c1cc(-c2ccc(O)cc2)oc2cc(O)cc(O)c12 [Naringenin, 18]
–	61.4	O=c1c(-c2ccc(O)cc2)coc2cc(O)cc(O)c12 [Prunetol]

The remaining lines, values behind:

SMILES	IC50 [1] [µM]	IC50 [2] [µM]
COc1cc(-c2oc3cc(O)cc(O)c3c(=O)c2O)ccc1O	6.3	20.1
COc1c(O)cc2oc(-c3ccc(O)c(O)c3)cc(=O)c2c1O	15.9	22.2
Oc1cc(O)c2c(c1)O[C@H](c1ccc(O)c(O)c1)[C@H](O)C2	89.5	67.6
O=c1cc(-c2ccc(O)c(O)c2)oc2cc(O[C@@H]3O[C@H](CO)[C@@H](O)[C@H](O)[C@H]3O)cc(O)c12	2.45	87.1
C[C@@H]1O[C@@H](Oc2c(-c3ccc(O)c(O)c3)oc3cc(O)cc(=O)c-3c2O)[C@H](O)[C@H](O)[C@H]1O	20.2	28.1
O=c1c(O)c(-c2ccc(O)c(O)c2)oc2cc(O)cc(O)c12 [2-(3,4-dihydroxyphenyl)-3,5,7-trihydroxy-chromone;hydrate]	2.31	3.45
O=c1cc(-c2ccc(O)c(O)c2)oc2cc(O)cc(O)c12 [2-(3,4-dihydroxyphenyl)-5,7-dihydroxy-4H-chromen-4-one]	2.3	18
C[C@@H]1O[C@@H](OC[C@H]2O[C@@H](Oc3c(-c4ccc(O)c(O)c4)oc4cc(O)cc(O)c4c3=O)[C@H](O)[C@@H](O)[C@@H]2O)[C@H](O)[C@H](O)[C@H]1O [3-Rhamnoglucosylquercetin]	–	65.9
COc1ccc(-c2cc(=O)c3c(O)c(OC)c(O)cc3o2)cc1 [4,5-Dihydroxy-6-methoxy-2-(4-methoxy-phenyl)-chromen-7-one]	–	32.4
COc1c(O)cc2oc(-c3ccc(O)cc3)cc(=O)c2c1O [5,7-dihydroxy-2-(4-hydroxyphenyl)-6-methoxy-4H-chromen-4-one]	34.8	18.6
COc1ccc([C@@H]2CC(=O)c3c(O)cc(O)cc3O2)cc1O [(2S)-5,7-dihydroxy-2-(3-hydroxy-4-methoxyphenyl)-3,4-dihydro-2H-1-benzopyran-4-one]	–	54.6
Oc1cc(O)c2c(c1)O[C@H](c1cc(O)c(O)c(O)c1)[C@@H](O)C2 [(+)-gallocatechin]	5.3	3.53
COc1cc(-c2cc(=O)c3c(O)c(OC)c(O)cc3o2)ccc1O [Jaceosidin]	19.1	18.9
O=c1cc(-c2ccc(O)c(O)c2)oc2c([C@@H]3O[C@H](CO)[C@@H](O)[C@H](O)[C@H]3O)c(O)cc(O)c12 [Luteolin 8-C-glucoside]	38.2	55.7
COc1cc(O)c2c(=O)cc(-c3ccc(OC)c(OC)c3)oc2c1 [Luteolin-7,3',4'-trimethylether]	–	33.2
COc1ccc(-c2cc(=O)c3c(O)c(OC)c(O)c(OC)c3o2)cc1 [Nevadensin]	16.3	23.9
COc1c(O)cc2oc(-c3ccc(O)c(O)c3)c(O)c(=O)c2c1O [Patuletin]	60.9	16.3
O=c1cc(O)cc2oc(-c3ccc(O)c(O)c3)c(O[C@@H]3O[C@H](CO)[C@@H](O)[C@H](O)[C@H]3O)c(O)c1-2 [Quercetin 3-O-beta-D-glucoside]	21.7	51.3
COc1cc(O)c2c(=O)cc(-c3ccc(O)c(OC)c3)oc2c1 [Velutin]	7.8	52.5
